Data reported in patent US20240124460A1, “METHODS AND COMPOSITIONS FOR TARGETED PROTEIN DEGRADATION” (Ranok Therapeutics (Hangzhou) Co. Ltd., priority 2020, published 2024).

How the values were obtained:
HSP90α protein = molecular target: T1, HSP90α protein (Homo sapiens, UniProt P07900); experiment: HSP90α-binding FP (FITC) assay; conditions: FP competition with FITC-geldanamycin
T1 construct: purchased BPS Bioscience #50298
Protocol: Binding of test compounds to HSP90α protein was measured by fluorescent polarization (FP) using the HSP90α (N-terminal) Assay Kit (BPS Bioscience, #50298), following the manufacturer's instructions, except as noted. Fluorescently labeled HSP90-binding compounds, either the provided FITC-geldanamycin (5 nM final concentration) or RNK04010, a triazolone-based HSP90 binding small molecule labeled with BODIPY through a piperazine-phenyl linker (5 nM final concentration) were employed. A 2.5-fold serial dilution of each test compound ranging from 20 μM to 5.2 nM was assayed for binding to HSP90α. After the final step of adding HSP90α protein to each assay well, plates were mixed by brief shaking, incubated at 25° C. for 120 min for FITC-geldanamycin or 300 min for RNK04010, and fluorescence was measured using a PerkinElmer EnVision Plate Reader.

[1] = test system: U-87 MG human glioblastoma; experiment: U87 MG CCK-8 proliferation assay; format: cell-based; conditions: Homo sapiens, U-87 MG, 72 h, U-87 MG cells, read-out: U87MG CCK-8
Outline: (§1)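 Cells grown per ATCC recommendations were treated with 3-fold serial compound dilutions from 20 μM to 1.02 nM. CCK-8 absorbance was converted to % inhibition against DMSO-treated cells, with cell-free medium containing DMSO as the blank.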

ERBB2 = ERBB2 (HER2) flow cytometry protein degradation assay in BT-474 cells; format: cell-based, human; conditions: DC50, BT-474 cells, 24 hr
Outline: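 BT-474 cells trypsinised after compound treatment and stained with PE-conjugated anti-ERBB2 antibody, 30 min at 25° C in the dark, then fixed in 1% paraformaldehyde for flow cytometry. % inhibition = 100−(D−B)/(S−B)*100, using treated, untreated-stained and unstained cell fluorescence.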

[2] = test system: MV-4-11 human acute myeloid leukemia; experiment: MV-4-11 CCK-8 proliferation assay; format: cell-based; conditions: Homo sapiens, MV4-11; MV-4-11 cells, 72 hr
Outline: as §1

MAPK7 [3] = molecular target: T2, MAPK7 (Homo sapiens, UniProt Q13164); experiment: MAPK7 Western blot protein degradation assay in U-87 MG cells; format: cell-based; set-up: U-87 MG human glioblastoma cells, which express MAPK7; endogenous in cells; host or cells: U-87 MG; conditions: 48 hr
T2 sequence (Q13164 whole entry): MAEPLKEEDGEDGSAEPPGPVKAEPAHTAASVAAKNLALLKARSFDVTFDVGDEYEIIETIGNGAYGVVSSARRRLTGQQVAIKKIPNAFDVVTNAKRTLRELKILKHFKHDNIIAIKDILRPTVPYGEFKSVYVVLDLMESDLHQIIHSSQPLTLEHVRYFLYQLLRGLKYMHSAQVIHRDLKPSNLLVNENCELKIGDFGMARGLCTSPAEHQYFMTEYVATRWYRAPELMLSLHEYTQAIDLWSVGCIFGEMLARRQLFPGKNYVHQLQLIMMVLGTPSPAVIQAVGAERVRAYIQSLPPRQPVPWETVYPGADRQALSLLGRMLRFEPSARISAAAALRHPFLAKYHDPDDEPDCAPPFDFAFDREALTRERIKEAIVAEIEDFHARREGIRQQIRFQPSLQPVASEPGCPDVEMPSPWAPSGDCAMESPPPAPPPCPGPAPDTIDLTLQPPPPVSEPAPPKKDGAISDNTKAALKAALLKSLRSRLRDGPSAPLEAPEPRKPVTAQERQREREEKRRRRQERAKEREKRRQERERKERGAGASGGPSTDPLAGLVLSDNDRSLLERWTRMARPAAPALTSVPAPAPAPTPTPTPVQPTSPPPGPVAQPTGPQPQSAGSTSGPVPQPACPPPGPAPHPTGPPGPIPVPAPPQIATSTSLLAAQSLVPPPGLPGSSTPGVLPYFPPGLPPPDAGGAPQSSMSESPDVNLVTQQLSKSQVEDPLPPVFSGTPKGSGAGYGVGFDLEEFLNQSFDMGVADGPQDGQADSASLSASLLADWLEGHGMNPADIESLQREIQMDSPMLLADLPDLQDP
Protocol: U-87 MG human glioblastoma cells were seeded in 6- or 12-well tissue culture plates, and after 1 hr, test compounds were added at various concentrations and incubated at 37° C./5% CO2 for 48 hr. Cells were then washed with cold PBS, aspirated and cold RIPA buffer containing a protease/phosphatase inhibitor cocktail was added to lyse cells. After centrifugation, the total protein concentrations of cell lysates were determined using the BCA protein assay. Samples were normalized for equivalent protein concentrations, 5×SDS-PAGE loading buffer added and denatured at 100° C. for 10 min. 20 μl of each sample/well was loaded on a SDS-PAGE gel and electrophoresed for 20 min at 80 V, then 120 V for 1.5 hr. Gels were then electroblotted to nitrocellulose membranes using a wet-transfer method at 250 mA for 2.5 hr. Membranes were incubated with blocking buffer for 1 hr and washed 3 times with TBST for 5 min. Membranes were then incubated with anti-MAPK7 (anti-ERK5; Cell Signaling Technology, #12950) and anti-3-Actin (Cell Signaling Technology, #3700) monoclonal antibodies diluted in blocking buffer at 4° C. overnight per the manufacturer's recommendations. After washing 3 times, blots were incubated with appropriately labeled secondary antibodies for 1 hr at room temperature and washed again. Fluorescence imaging and quantitation was performed using a LI-COR Odyssey. Results was analyzed using GraphPad Prism 7 software.

MAPK7 [4] = molecular target: T2, MAPK7; experiment: MAPK7 kinase assay (ADP-Glo); format: biochemical; set-up: purchased Carna Biosciences #04-146; conditions: ATP 340 μM
Protocol: The inhibition of MAPK7 kinase activity by test compounds was measured by the ADP-Glo Kinase Assay (Promega, #V6930), following the manufacturer's instructions, except as noted. 3-fold serial dilutions of each test compound were prepared ranging from 50 μM to 2.54 nM. Also, as a positive control, a 4-fold serial dilution of the MAPK7 inhibitor, XMD17-109 (MedChemExpress, #HY-15665) was prepared ranging from 10 μM to 0.04 nM. In brief, in 384-well plates, test compounds were added to the kinase reaction mix containing recombinant MAPK7 protein (Carna Biosciences, #04-146; 20 nM final concentration), myelin basic protein (SignalChem Biotech, #M42-54G; 0.1 mg/ml final concentration) and ATP (340 μM final concentration), then mixed by shaking and incubated with ADP-Glo Reagent and Kinase Detection Reagent. Luminescence was measured on a BioTek plate reader.
Lumpositive: The average ratio for 10 wells of positive controls (10 μM XMD17-109) across the plate.
Lumvehicle: The average ratio for 10 wells of negative controls (0.5% DMSO) across the plate.

Structure (SMILES) | IC50 (HSP90α protein) | EC50 [1] | EC50 [2] | MAPK7 degradation (30 nM) (MAPK7 [3]; 30 nM) | MAPK7 degradation (100 nM) (MAPK7 [3]; 100 nM) | MAPK7 degradation (1000 nM) (MAPK7 [3]; 1000 nM) | IC50 (MAPK7 [4]) | ERBB2 degradation (ERBB2)
CCOc1cc(N2CCC(C(=O)N3CCC(CN4CCC(COc5ccc(Nc6cc(-n7nc(C(F)(F)F)c8c7CC(C)(C)CC8=O)ccc6C(N)=O)cc5)CC4)CC3)CC2)ccc1Nc1ncc2c(n1)N(C)c1ccccc1C(=O)N2C [Compound 129, 4-(6,6-dimethyl-4-oxo-3-(trifluoromethyl)-4,5,6,7-tetrahydro-1H-indazol-1-yl)-2-((4-((1-((1-(1-(4-((5,11-dimethyl-6-oxo-6,11-dihydro-5H-benzo[e]pyrimido[5,4-b][1,4]diazepin-2-yl)amino)-3-ethoxyphenyl)piperidine-4-carbonyl)piperidin-4-yl)methyl)piperidin-4-yl)methoxy)phenyl)amino)benzamide] | 100 to 1000 nM | > 1000 nM | 100 to 1000 nM |  |  |  |  | 
CCOc1cc(N2CCC(C(=O)N3CCC(CN4CCN(CCOc5ccc(Nc6cc(-n7nc(C(F)(F)F)c8c7CC(C)(C)CC8=O)ccc6C(N)=O)cc5)CC4)CC3)CC2)ccc1Nc1ncc2c(n1)N(C)c1ccccc1C(=O)N2C [Compound 130, 4-(6,6-dimethyl-4-oxo-3-(trifluoromethyl)-4,5,6,7-tetrahydro-1H-indazol-1-yl)-2-((4-(2-(4-((1-(1-(4-((5,11-dimethyl-6-oxo-6,11-dihydro-5H-benzo[e]pyrimido[5,4-b][1,4]diazepin-2-yl)amino)-3-ethoxyphenyl)piperidine-4-carbonyl)piperidin-4-yl)methyl)piperazin-1-yl)ethoxy)phenyl)amino)benzamide] | > 1000 nM | > 1000 nM | 100 to 1000 nM |  |  |  |  | 
CCOc1cc(N2CCC(C(=O)NCCOCCOCCOCCOc3ccc(Nc4cc(-n5nc(C(F)(F)F)c6c5CC(C)(C)CC6=O)ccc4C(N)=O)cc3)CC2)ccc1Nc1ncc2c(n1)N(C)c1ccccc1C(=O)N2C [Compound 132, N-(2-(2-(2-(2-(4-((2-carbamoyl-5-(6,6-dimethyl-4-oxo-3-(trifluoromethyl)-4,5,6,7-tetrahydro-1H-indazol-1-yl)phenyl)amino)phenoxy)ethoxy)ethoxy)ethoxy)ethyl)-1-(4-((5,11-dimethyl-6-oxo-6,11-dihydro-5H-benzo[e]pyrimido[5,4-b][1,4]diazepin-2-yl)amino)-3-ethoxyphenyl)piperidine-4-carboxamide] | > 1000 nM | > 1000 nM | 100 to 1000 nM |  |  |  |  | 
CCOc1cc(N2CCC(C(=O)N3CCC(CN4CCN(Cc5ccc(-n6c(C(=O)NC(C)C(F)(F)F)nnc6-c6cc(CC)c(O)cc6OC)cc5)CC4)CC3)CC2)ccc1Nc1ncc2c(n1)N(S(C)(=O)=O)c1ccccc1C(=O)N2C (centres unmarked) [Compound 142, 4-(4-((4-((1-(1-(3-ethoxy-4-((5-methyl-11-(methylsulfonyl)-6-oxo-6,11-dihydro-5H-benzo[e]pyrimido[5,4-b][1,4]diazepin-2-yl)amino)phenyl)piperidine-4-carbonyl)piperidin-4-yl)methyl)piperazin-1-yl)methyl)phenyl)-5-(5-ethyl-4-hydroxy-2-methoxyphenyl)-N-(1,1,1-trifluoropropan-2-yl)-4H-1,2,4-triazole-3-carboxamide] |  |  |  |  |  |  | 100 to 1000 nM | 

Now from value to compound, other results behind:

IC50 (HSP90α protein) | EC50 [1] | EC50 [2] | MAPK7 degradation (30 nM) (MAPK7 [3]; 30 nM) | MAPK7 degradation (100 nM) (MAPK7 [3]; 100 nM) | MAPK7 degradation (1000 nM) (MAPK7 [3]; 1000 nM) | IC50 (MAPK7 [4]) | Structure (SMILES) | ERBB2 degradation (ERBB2)
< 100 nM | > 1000 nM | 100 to 1000 nM |  |  |  |  | CCOc1cc(N2CCC(OCC(=O)N3CCN(Cc4ccc(-n5c(O)nnc5-c5cc(C(C)C)c(O)cc5O)cc4)CC3)CC2)ccc1Nc1ncc2c(n1)N(C)c1ccccc1C(=O)N2C [Compound 001, 2-((4-(4-(2-(4-(4-(3-(2,4-dihydroxy-5-isopropylphenyl)-5-hydroxy-4H-1,2,4-triazol-4-yl)benzyl)piperazin-1-yl)-2-oxoethoxy)piperidin-1-yl)-2-ethoxyphenyl)amino)-5,11-dimethyl-5H-benzo[e]pyrimido[5,4-b][1,4]diazepin-6(11H)-one] | C (DC50 > 1000 nM)
< 100 nM | 100 to 1000 nM | < 100 nM |  |  |  |  | CCOc1cc(N2CCC(OCC(=O)NCCOCCN3CCN(Cc4ccc(-n5c(O)nnc5-c5cc(C(C)C)c(O)cc5O)cc4)CC3)CC2)ccc1Nc1ncc2c(n1)N(C)c1ccccc1C(=O)N2C [Compound 002, N-(2-(2-(4-(4-(3-(2,4-dihydroxy-5-isopropylphenyl)-5-hydroxy-4H-1,2,4-triazol-4-yl)benzyl)piperazin-1-yl)ethoxy)ethyl)-2-((1-(4-((5,11-dimethyl-6-oxo-6,11-dihydro-5H-benzo[e]pyrimido[5,4-b][1,4]diazepin-2-yl)amino)-3-ethoxyphenyl)piperidin-4-yl)oxy)acetamide] | B (DC50 = 100-1000 nM)
100 to 1000 nM | < 100 nM | < 100 nM | C (< 33% degradation) | C (< 33% degradation) | A (>66% degradation) |  | CCOc1cc(N2CCC(C(=O)NCCOCc3ccc(-n4c(O)nnc4-c4cc(C(C)C)c(O)cc4O)cc3)CC2)ccc1Nc1ncc2c(n1)N(C)c1ccccc1C(=O)N2C [Compound 005, N-(2-((4-(3-(2,4-dihydroxy-5-isopropylphenyl)-5-hydroxy-4H-1,2,4-triazol-4-yl)benzyl)oxy)ethyl)-1-(4-((5,11-dimethyl-6-oxo-6,11-dihydro-5H-benzo[e]pyrimido[5,4-b][1,4]diazepin-2-yl)amino)-3-ethoxyphenyl)piperidine-4-carboxamide] | B (DC50 = 100-1000 nM)
100 to 1000 nM | 100 to 1000 nM | < 100 nM |  |  |  |  | CCOc1cc(N2CCC(C(=O)NCCOc3cccc(CN(C)Cc4ccc(-n5c(O)nnc5-c5cc(C(C)C)c(O)cc5O)cc4)c3)CC2)ccc1Nc1ncc2c(n1)N(C)c1ccccc1C(=O)N2C [Compound 007, N-(2-(3-(((4-(3-(2,4-dihydroxy-5-isopropylphenyl)-5-hydroxy-4H-1,2,4-triazol-4-yl)benzyl)(methyl)amino)methyl)phenoxy)ethyl)-1-(4-((5,11-dimethyl-6-oxo-6,11-dihydro-5H-benzo[e]pyrimido[5,4-b][1,4]diazepin-2-yl)amino)-3-ethoxyphenyl)piperidine-4-carboxamide] | B (DC50 = 100-1000 nM)
100 to 1000 nM | 100 to 1000 nM | 100 to 1000 nM |  |  |  |  | CCOc1cc(N2CCC(C(=O)N3CCC(CN4CCN(C(=O)c5ccc(-n6c(O)nnc6-c6cc(C(C)C)c(O)cc6O)cc5)CC4)CC3)CC2)ccc1Nc1ncc2c(n1)N(S(C)(=O)=O)c1ccccc1C(=O)N2C [Compound 127, 2-((4-(4-(4-((4-(4-(3-(2,4-dihydroxy-5-isopropylphenyl)-5-hydroxy-4H-1,2,4-triazol-4-yl)benzoyl)piperazin-1-yl)methyl)piperidine-1-carbonyl)piperidin-1-yl)-2-ethoxyphenyl)amino)-5-methyl-11-(methylsulfonyl)-5,11-dihydro-6H-benzo[e]pyrimido[5,4-b][1,4]diazepin-6-one] | 
